In ChEMBL document CHEMBL3102727, “Conformationally constrained ortho-anilino diaryl ureas: discovery of 1-(2-(1'-neopentylspiro[indoline-3,4'-piperidine]-1-yl)phenyl)-3-(4-(trifluoromethoxy)phenyl)urea, a potent, selective, and bioavailable P2Y1 antagonist” (J Med Chem, 2013):
In brackets after ≈: the same amount, converted by molar mass. Activity calls are given as the source filed them. The calls are words filed in the database; no cut-off is given here.

Experiments:
L-type calcium channel = L-type calcium channel (Rattus norvegicus, UniProt P22002+P27732+Q02485); test: Inhibition of rat L-type calcium channel at 10 uM relative to control
[1] = Clearance in dog at 0.2 mg/kg, po and 0.1 mg/kg, iv; format: ADME, organism-based, Canis lupus familiaris; details: in vivo
[2] = Total AUC in rat at 0.5 mg/kg, po; format: ADME, organism-based; design: time AUCmax, dose 0.5 mg/kg, route oral; details: in vivo
Rattus norvegicus [3] = test: Antithrombotic activity in po dosed FeCl2-induced Sprague-Dawley rat carotid artery thrombosis model assessed as increase in integrated blood flow measured over 60 mins; format: functional, organism-based
[4] = Oral bioavailability in dog at 0.2 mg/kg; format: ADME, organism-based, Canis lupus familiaris; details: in vivo
[5] = Clearance in rat at 0.5 mg/kg, iv administered as bolus dose; format: ADME, organism-based; design: dose 0.5 mg/kg, route intravenous; details: in vivo
Rattus norvegicus [6] = test: Antithrombotic activity in FeCl2-induced Sprague-Dawley rat carotid artery thrombosis model assessed as reduction of thrombus weight at 0.6 mg/kg and 2.25 mg/kg/hr, iv after 60 mins relative to vehicle-treated control; format: functional; design: scale not given: the % may be the effect or the level left
P2X purinoceptor 1 = target: T1, P2X purinoceptor 1 (Homo sapiens, UniProt P51575); test: Antagonist activity at P2X1 receptor in HEK293 cells assessed as alpha, beta-methylene ATP-induced calcium flux by FLIPR assay; format: cell-based
T1 sequence (P51575 whole entry): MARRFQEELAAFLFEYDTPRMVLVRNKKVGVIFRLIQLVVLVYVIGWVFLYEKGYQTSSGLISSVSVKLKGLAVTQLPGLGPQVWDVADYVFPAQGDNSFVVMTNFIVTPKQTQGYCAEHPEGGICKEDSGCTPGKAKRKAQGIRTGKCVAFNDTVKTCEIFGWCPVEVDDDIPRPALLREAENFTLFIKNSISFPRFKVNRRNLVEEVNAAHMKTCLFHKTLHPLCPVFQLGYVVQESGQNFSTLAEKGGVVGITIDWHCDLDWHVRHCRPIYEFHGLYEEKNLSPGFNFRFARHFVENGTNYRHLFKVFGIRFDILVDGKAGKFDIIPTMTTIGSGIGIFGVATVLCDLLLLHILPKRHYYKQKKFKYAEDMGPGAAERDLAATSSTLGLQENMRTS

Rattus norvegicus [7] = test: Antithrombotic activity in FeCl2-induced Sprague-Dawley rat carotid artery thrombosis model assessed as reduction of thrombus weight at 3 mg/kg, po after 60 mins relative to vehicle-treated control; format: functional; design: scale not given: the % may be the effect or the level left
HEK293 = test: Selectivity ratio of IC50 for P2X1 receptor in HEK293 cells to IC50 for P2Y1 receptor in washed human platelets; format: cell-based
[8] = Metabolic stability in human liver microsomes assessed as compound remaining after 10 mins; format: ADME; details: read-out: Stability
Rattus norvegicus [9] = test: Antithrombotic activity in FeCl2-induced Sprague-Dawley rat carotid artery thrombosis model assessed as integrated blood flow at 0.6 mg/kg and 2.25 mg/kg/hr, iv after 60 mins relative to vehicle-treated control; format: functional
Rattus norvegicus [10] = test: Antithrombotic activity in FeCl2-induced Sprague-Dawley rat carotid artery thrombosis model assessed as reduction of thrombus weight at 0.2 mg/kg and 0.75 mg/kg/hr, iv after 60 mins relative to vehicle-treated control; format: functional; design: scale not given: the % may be the effect or the level left
[11] = Partition coefficient, log P of the compound at pH 7 by reversed-phase HPLC method; format: physicochemical; details: octanol/water
[12] = Metabolic stability in rat liver microsomes assessed as compound remaining after 10 mins; format: ADME; details: read-out: Stability
P2Y purinoceptor 2 = P2Y purinoceptor 2 (Homo sapiens, UniProt P41231); test: Antagonist activity at P2Y2 receptor in human HeLa cells assessed as intracellular calcium mobilization after 10 mins by Fluo-4 AM staining-based FLIPR assay; format: functional, cell-based
P2Y purinoceptor 2, sequence (P41231 whole entry): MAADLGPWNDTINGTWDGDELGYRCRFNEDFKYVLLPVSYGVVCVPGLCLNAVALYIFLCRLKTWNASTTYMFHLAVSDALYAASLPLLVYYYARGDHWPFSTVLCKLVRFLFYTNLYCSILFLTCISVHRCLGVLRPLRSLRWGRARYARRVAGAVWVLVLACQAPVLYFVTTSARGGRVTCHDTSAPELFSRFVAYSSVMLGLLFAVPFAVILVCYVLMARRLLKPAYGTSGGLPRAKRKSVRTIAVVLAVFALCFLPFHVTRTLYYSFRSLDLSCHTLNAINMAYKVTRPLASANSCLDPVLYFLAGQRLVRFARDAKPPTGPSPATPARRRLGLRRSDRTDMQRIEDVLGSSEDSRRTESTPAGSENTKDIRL

[13] = Volume of distribution at steady state in dog at 0.2 mg/kg, po and 0.1 mg/kg, iv; format: ADME, organism-based, Canis lupus familiaris; details: in vivo, read-out: Vdss
Rattus norvegicus [14] = test: Antithrombotic activity in FeCl2-induced Sprague-Dawley rat vena cava thrombosis model assessed as reduction of thrombus weight at 0.6 mg/kg and 2.25 mg/kg/hr, iv after 60 mins relative to vehicle-treated control; format: functional; design: scale not given: the % may be the effect or the level left
Rattus norvegicus [15] = test: Antithrombotic activity in FeCl2-induced Sprague-Dawley rat carotid artery thrombosis model assessed as prevention of vascular occlusion at 0.6 mg/kg and 2.25 mg/kg/hr, iv after 60 mins; format: functional, organism-based
Rattus norvegicus [16] = test: Antithrombotic activity in FeCl2-induced Sprague-Dawley rat carotid artery thrombosis model assessed as reduction of thrombus weight at 10 mg/kg, po after 60 mins relative to vehicle-treated control; format: functional; design: scale not given: the % may be the effect or the level left
[17] = Fraction unbound in mouse; format: ADME, organism-based; details: in vivo
Rattus norvegicus [18] = test: Ex vivo antiplatelet activity in Sprague-Dawley rat assessed as inhibition of […] uM ADP-induced platelet aggregation at 0.2 mg/kg and 0.75 mg/kg/hr, iv after 60 mins relative to vehicle-treated control; format: functional
P2Y purinoceptor 1 [19] = target: T2, P2Y purinoceptor 1 (Homo sapiens, UniProt P47900); test: Antagonist activity at P2Y1 receptor in washed human platelets assessed as 1 uM 2-methylthio-ADP-induced calcium flux by FLIPR assay; format: functional
T2 sequence (P47900 whole entry): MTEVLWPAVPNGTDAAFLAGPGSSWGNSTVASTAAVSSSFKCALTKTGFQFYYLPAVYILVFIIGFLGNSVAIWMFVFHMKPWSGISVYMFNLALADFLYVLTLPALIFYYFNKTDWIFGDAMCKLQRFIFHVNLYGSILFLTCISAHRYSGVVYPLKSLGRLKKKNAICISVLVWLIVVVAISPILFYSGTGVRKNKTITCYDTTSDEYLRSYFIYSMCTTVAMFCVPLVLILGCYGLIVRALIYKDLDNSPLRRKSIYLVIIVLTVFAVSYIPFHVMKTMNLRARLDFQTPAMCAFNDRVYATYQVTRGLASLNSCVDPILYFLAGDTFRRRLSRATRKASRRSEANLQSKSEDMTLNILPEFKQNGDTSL

[20] = target: Opioid receptors; mu/kappa/delta (Homo sapiens, UniProt P41145+P41143+P35372); test: Inhibition of opioid receptor (unknown origin)
[21] = Fraction unbound in rat; format: ADME, organism-based; details: in vivo
Rattus norvegicus [22] = test: Ex vivo antiplatelet activity in Sprague-Dawley rat assessed as inhibition of […] uM ADP-induced platelet aggregation at 0.6 mg/kg and 2.25 mg/kg/hr, iv after 60 mins relative to vehicle-treated control; format: functional
Rattus norvegicus [23] = test: Antithrombotic activity in FeCl2-induced Sprague-Dawley rat carotid artery thrombosis model assessed as integrated blood flow at 10 mg/kg, po after 60 mins relative to vehicle-treated control; format: functional
Rattus norvegicus [24] = species on record: Rattus norvegicus; test: Inhibition of rat sodium channel site-2 at 10 uM relative to control
Rattus norvegicus [25] = test: Ex vivo antiplatelet activity in Sprague-Dawley rat assessed as inhibition of […] uM ADP-induced platelet aggregation at 10 mg/kg, po after 60 mins relative to vehicle-treated control; format: functional; details: 1 h
Rattus norvegicus [26] = test: Induction of mesenteric bleeding time in iv dosed Sprague-Dawley rat measured over 10 mins; format: organism-based; details: in vivo
Rattus norvegicus [27] = test: Antithrombotic activity in FeCl2-induced Sprague-Dawley rat vena cava thrombosis model assessed as reduction of thrombus weight at 0.2 mg/kg and 0.75 mg/kg/hr, iv after 60 mins relative to vehicle-treated control; format: functional; design: scale not given: the % may be the effect or the level left
Rattus norvegicus [28] = test: Antithrombotic activity in po dosed FeCl2-induced Sprague-Dawley rat carotid artery thrombosis model assessed as inhibition of arterial thrombus formation after 60 mins; format: functional, organism-based
[29] = Fraction unbound in human; format: ADME, organism-based; details: in vivo
[30] = Volume of distribution at steady state in rat at 0.5 mg/kg, iv administered as bolus dose; format: ADME, organism-based; design: dose 0.5 mg/kg, route intravenous; details: in vivo, read-out: Vdss
Rattus norvegicus [31] = test: Antithrombotic activity in iv dosed FeCl2-induced Sprague-Dawley rat carotid artery thrombosis model assessed as increase in integrated blood flow measured over 60 mins; format: functional, organism-based
P2Y purinoceptor 1 [32] = target: T2, P2Y purinoceptor 1; test: Displacement of [33P]-2MeS-ADP from human P2Y1 receptor expressed in HEK293 cells after 1 hr by scintillation counting analysis; format: cell-based
Rattus norvegicus [33] = test: Induction of mesenteric bleeding time in Sprague-Dawley rat at 0.6 mg/kg and 2.25 mg/kg/hr, iv measured over 10 mins relative to vehicle-treated control; format: organism-based; details: in vivo
P2Y purinoceptor 12 = P2Y purinoceptor 12 (Homo sapiens, UniProt Q9H244); test: Displacement of [33P]-2MeS-ADP from P2Y12 receptor (unknown origin) transfected in HEK293 cells after 1 hr by scintillation counting analysis; format: cell-based
P2Y purinoceptor 12, sequence (Q9H244 whole entry): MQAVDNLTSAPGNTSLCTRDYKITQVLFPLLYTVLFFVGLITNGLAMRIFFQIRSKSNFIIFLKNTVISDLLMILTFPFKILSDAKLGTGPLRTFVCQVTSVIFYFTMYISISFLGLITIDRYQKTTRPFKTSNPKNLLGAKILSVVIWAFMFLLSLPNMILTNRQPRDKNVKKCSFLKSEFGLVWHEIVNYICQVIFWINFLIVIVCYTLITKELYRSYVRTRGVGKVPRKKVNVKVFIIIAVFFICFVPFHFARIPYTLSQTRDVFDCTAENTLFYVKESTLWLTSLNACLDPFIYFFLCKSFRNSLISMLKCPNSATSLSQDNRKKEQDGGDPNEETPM

Rattus norvegicus [34] = test: Antithrombotic activity in iv dosed FeCl2-induced Sprague-Dawley rat carotid artery thrombosis model assessed as inhibition of arterial thrombus formation after 60 mins; format: functional, organism-based
Rattus norvegicus [35] = test: Ex vivo antiplatelet activity in Sprague-Dawley rat assessed as inhibition of […] uM ADP-induced platelet aggregation at 3 mg/kg, po after 60 mins relative to vehicle-treated control; format: functional; details: 1 h
[36] = Half life in dog at 0.2 mg/kg, po; format: ADME, organism-based, Canis lupus familiaris; design: dose 0.2 mg/kg, route oral; details: in vivo
Rattus norvegicus [37] = test: Antithrombotic activity in FeCl2-induced Sprague-Dawley rat carotid artery thrombosis model assessed as prevention of vascular occlusion at 10 mg/kg, po after 60 mins; format: functional, organism-based; design: dose 10 mg/kg
[38] = Oral bioavailability in rat at 0.5 mg/kg; format: ADME, organism-based; details: in vivo
[39] = Fraction unbound in rabbit; format: ADME, organism-based, Oryctolagus cuniculus; details: in vivo
[40] = Fraction unbound in dog; format: ADME, organism-based, Canis lupus familiaris; details: in vivo
Rattus norvegicus [41] = test: Induction of mesenteric bleeding time in Sprague-Dawley rat at 0.2 mg/kg and 0.75 mg/kg/hr, iv measured over 10 mins relative to vehicle-treated control; format: organism-based; details: in vivo
[42] = Half life in rat at 0.5 mg/kg, iv administered as bolus dose and po; format: ADME, organism-based; design: dose 0.5 mg/kg, route oral; details: in vivo
Rattus norvegicus [43] = test: Antithrombotic activity in iv dosed FeCl2-induced Sprague-Dawley rat vena cava thrombosis model assessed as reduction of thrombus weight after 60 mins; format: functional, organism-based
[44] = Aqueous solubility of the crystalline form of compound in phosphate buffer at pH 6.5; format: physicochemical

Structure (SMILES): CC(C)(C)CN1CCC2(CC1)CN(c1ccccc1NC(=O)Nc1ccc(OC(F)(F)F)cc1)c1ccccc12
- inhibition at 10 µM (L-type calcium channel): 78%
- clearance [1]: 5.3 mL/min/kg
- AUC [2]: 0.587 µM·h
- Activity (Rattus norvegicus [3]): Dose-dependent effect
- bioavailability [4]: 55%
- clearance [5]: 9.1 mL/min/kg
- Activity (Rattus norvegicus [6]): 66%
- IC50 (P2X purinoceptor 1): 1600 nM
- Activity (Rattus norvegicus [7]): -45%
- Ratio IC50 (HEK293): > 600
- remaining at 10 min [8]: 89%
- Activity (Rattus norvegicus [9]): >95%
- Activity (Rattus norvegicus [10]): -41%
- logP [11]: > 6.2
- remaining at 10 min [12]: 87%
- IC50 (P2Y purinoceptor 2): > 10000 nM
- Vd [13]: 2.8 L/kg
- Activity (Rattus norvegicus [14]): -54%
- Activity (Rattus norvegicus [15]): Active
- Activity (Rattus norvegicus [16]): 64%
- Fu [17]: 0.2%
- inhibition (INH) (Rattus norvegicus [18]): -30%
- IC50 (P2Y purinoceptor 1 [19]): 2.5 nM
- IC50 [20]: 2700 nM
- Fu [21]: < 0.1%
- inhibition (INH) (Rattus norvegicus [22]): -85%
- Activity (Rattus norvegicus [23]): >95%
- inhibition (Rattus norvegicus [24]): 88%
- inhibition in vivo at 10 mg/kg (Rattus norvegicus [25]): -64%
- Activity (Rattus norvegicus [26]): Dose-dependent effect
- Activity (Rattus norvegicus [27]): -26%
- inhibition (Rattus norvegicus [28]): Dose-dependent effect
- Fu [29]: < 0.1%
- Vd [30]: 2.8 L/kg
- Activity (Rattus norvegicus [31]): Dose-dependent effect
- Ki (P2Y purinoceptor 1 [32]): 4.3 nM
- fold change (FC) (Rattus norvegicus [33]): 2.3
- IC50 (P2Y purinoceptor 12): > 20000 nM
- inhibition (Rattus norvegicus [34]): Dose-dependent effect
- inhibition in vivo at 3 mg/kg (Rattus norvegicus [35]): -48%
- half-life [36]: 9.7 h
- Activity (Rattus norvegicus [37]): Active
- bioavailability [38]: 32%
- Fu [39]: 0.1%
- Fu [40]: 0.2%
- fold change (FC) (Rattus norvegicus [41]): 2.7
- half-life [42]: 7.5 h
- Activity (Rattus norvegicus [43]): Dose-dependent effect
- solubility [44]: 4 µg/mL (≈ 7.24 µM)
